Experimental data published in ChEMBL document CHEMBL1275339, “Anti-leishmanial and anti-trypanosomal activities of 1,4-dihydropyridines: In vitro evaluation and structure-activity relationship study” (Bioorg Med Chem, 2010).

Experiments:
Leishmania chagasi [1] = assay: Antileishmanial activity against promastigotes of Leishmania chagasi MHOM/BR/1972/LD after 18 hrs by MTT assay; format: functional, organism-based
Leishmania chagasi [2] = assay: Antileishmanial activity against amastigotes of Leishmania chagasi MHOM/BR/1972/LD after 24 hrs by MTT assay; format: functional, organism-based
Leishmania amazonensis = assay: Antileishmanial activity against promastigotes of Leishmania amazonensis WHO/BR/00/LT0016 after 18 hrs by MTT assay; format: functional, organism-based; settings: WHO/BR/00/LT0016, 18 h
Leishmania major = assay: Antileishmanial activity against promastigotes of Leishmania major MHOM/1L/80/Fredlin after 18 hrs by MTT assay; format: functional, organism-based
Leishmania braziliensis = assay: Antileishmanial activity against promastigotes of Leishmania braziliensis MHO/BR/75/M2903 after 18 hrs by MTT assay; format: functional, organism-based; settings: MHO/BR/75/M2903, 18 h
Trypanosoma cruzi [3] = assay: Antitrypanosomal activity against trypomastigotes of Trypanosoma cruzi infected in rhesus monkey LLC-MK2 cells after 48 hrs by MTT assay; format: functional, organism-based; settings: LLC-MK2, 48 h
LLC-MK2 = assay: Cytotoxicity against rhesus monkey LLC-MK2 cells after 48 hrs by MTT assay; format: cell-based, Macaca mulatta
[4] = Selectivity index, ratio of IC50 for rhesus monkey LLC-MK2 cells to IC50 for amastigotes of Leishmania chagasi MHOM/BR/1972/LD; format: toxicity, cell-based; settings: read-out: Selectivity Index
[5] = Selectivity index, ratio of IC50 for rhesus monkey LLC-MK2 cells to IC50 for trypomastigotes of Trypanosoma cruzi; format: toxicity, cell-based; settings: read-out: Selectivity Index
[6] = Cytotoxicity in BALB/c mouse erythrocytes assessed as hemolysis at 50 uM after 3 hrs; format: cell-based; settings: erythrocyte
Trypanosoma cruzi [7] = assay: Antitrypanosomal activity against epimastigotes of Trypanosoma cruzi; format: functional, organism-based
[8] = Leishmania chagasi, MHOM/BR/1972/LD, 24 h

Row | Compound | IC50 (Trypanosoma cruzi [3]) [µM] | IC50 (Trypanosoma cruzi [7]) [µM] | IC50 (Leishmania chagasi [1]) [µM] | IC50 (Leishmania chagasi [2]; [8]) [µM] | IC50 (Leishmania amazonensis) [µM] | IC50 (Leishmania major) [µM] | IC50 (Leishmania braziliensis) [µM] | IC50 (LLC-MK2; Macaca mulatta, LLC-MK2, 48 h) [µM] | selectivity ratio [4] | selectivity ratio [5] | Activity [6] | IC50 (Leishmania chagasi [2]) [µM] | IC50 (LLC-MK2; llc-mk2) [µM]
1 | CCOC(=O)C1=C(COCCN)NC(C)=C(C(=O)OC)C1c1ccccc1Cl (centres undefined) [AMLODIPINE] | 8.07 | – | 2.61 | 5.35 | 2.93 | 3.35 | 3.13 | 70.8 | 13.2 | 8.77 | Non-toxic | – | –
2 | CC1=C(C(=O)OC(C)C)C(c2cccc([N+](=O)[O-])c2)C(C(=O)OC2CN(C(c3ccccc3)c3ccccc3)C2)=C(N)N1 (centres undefined) [AZELNIDIPINE] | 2.9 | – | 33.4 | – | 20.5 | 17.1 | 13.7 | 33.5 | – | 11.5 | Non-toxic | – | –
3 | O=C(Cn1ccnc1[N+](=O)[O-])NCc1ccccc1 [BENZNIDAZOLE] | 172 | – | – | – | – | – | – | > 1370 | – | – | Non-toxic | – | –
4 | CCOC(=O)C1=C(C)NC(C)=C(C(=O)OCC)C1c1ccccc1/C=C/C(=O)OC(C)(C)C [LACIDIPINE] | – | 33.5 | – | – | – | – | – | – | – | – | Non-toxic | – | –
5 | COC(=O)C1=C(C)NC(C)=C(C(=O)OC(C)(C)CN(C)CCC(c2ccccc2)c2ccccc2)C1c1cccc([N+](=O)[O-])c1 (centres undefined) [LERCANIDIPINE] | 8.43 | – | 19.2 | 10.4 | 16.9 | 11.6 | 10.3 | 435 | 42 | 51.6 | Non-toxic | – | –
6 | COC(=O)C1=C(C)NC(C)=C(C(=O)OC)C1c1ccccc1[N+](=O)[O-] [NIFEDIPINE] | 102 | – | 146 | 176 | 118 | 181 | 95.7 | 589 | 4.21 | 5.78 | Non-toxic | – | –
7 | N=C(N)c1ccc(OCCCCCOc2ccc(C(=N)N)cc2)cc1 [PENTAMIDINE] | – | – | 1.11 | – | 0.49 | 0.47 | 0.15 | 25.6 | – | – | Non-toxic | – | –
8 | MEGLUMINE ANTIMONATE | – | – | – | – | – | – | – | – | – | – | Non-toxic | 82.3 | > 1370

Now from value to compound, other results behind:

Row | IC50 (Trypanosoma cruzi [3]) [µM] | IC50 (Trypanosoma cruzi [7]) [µM] | Compound | IC50 (Leishmania chagasi [1]) [µM] | IC50 (Leishmania chagasi [2]; [8]) [µM] | IC50 (Leishmania amazonensis) [µM] | IC50 (Leishmania major) [µM] | IC50 (Leishmania braziliensis) [µM] | IC50 (LLC-MK2; Macaca mulatta, LLC-MK2, 48 h) [µM] | selectivity ratio [4] | selectivity ratio [5] | Activity [6] | IC50 (Leishmania chagasi [2]) [µM] | IC50 (LLC-MK2; llc-mk2) [µM]
9 | 5.62 | – | COCCOC(=O)C1=C(C)NC(C)=C(C(=O)OC/C=C/c2ccccc2)C1c1cccc([N+](=O)[O-])c1 (centres undefined) [CILNIDIPINE] | 33 | 28.4 | 111 | 21.4 | 15.3 | 222 | 7.79 | 39.4 | Non-toxic | – | –
10 | – | 20.8 | COC(=O)C1=C(C)NC(C)=C(C(=O)OC(C)C)C1c1cccc2nonc12 (centres undefined) [ISRADIPINE] | – | – | – | – | – | – | – | – | Non-toxic | – | –
11 | 10.6 | – | COC(=O)C1=C(C)NC(C)=C(C(=O)OCCN(C)Cc2ccccc2)C1c1cccc([N+](=O)[O-])c1 (centres undefined) [NICARDIPINE] | 35.7 | 22 | 26.5 | 21.8 | 19.1 | 71.6 | 3.25 | 6.76 | Non-toxic | – | –
12 | 32.3 | – | COCCOC(=O)C1=C(C)NC(C)=C(C(=O)OC(C)C)C1c1cccc([N+](=O)[O-])c1 (centres undefined) [NIMODIPINE] | 82.7 | 21.6 | 128 | 31 | 42.8 | 96.2 | 4.45 | 2.98 | Non-toxic | – | –
13 | 26.9 | – | CCOC(=O)C1=C(C)NC(C)=C(C(=O)OC)C1c1cccc([N+](=O)[O-])c1 (centres undefined) [NITRENDIPINE] | 64.1 | 43.8 | 38.3 | 33.3 | 39 | 138 | 3.14 | 5.12 | Non-toxic | – | –
